Experimental data published in ChEMBL document CHEMBL5678818, “Discovery of potent SOS1 inhibitors that block RAS activation via disruption of the RAS-SOS1 interaction” (Proc Natl Acad Sci U S A, 2019).

Key:
[1] = biological target: Dual specificity tyrosine-phosphorylation-regulated kinase 1B (Homo sapiens) (UniProt Q9Y463); test: Inhibition of DYRK1B (unknown origin) assessed as residual activity at 1000 nM by KINOMEscan analysis relative to control
[2] = biological target: Homeodomain-interacting protein kinase 2 (Homo sapiens) (UniProt Q9H2X6); test: Inhibition of HIPK2 (unknown origin) assessed as residual activity at 1000 nM by KINOMEscan analysis relative to control
Sequence of Homeodomain-interacting protein kinase 2 (Homo sapiens) (Q9H2X6 whole entry, looked up): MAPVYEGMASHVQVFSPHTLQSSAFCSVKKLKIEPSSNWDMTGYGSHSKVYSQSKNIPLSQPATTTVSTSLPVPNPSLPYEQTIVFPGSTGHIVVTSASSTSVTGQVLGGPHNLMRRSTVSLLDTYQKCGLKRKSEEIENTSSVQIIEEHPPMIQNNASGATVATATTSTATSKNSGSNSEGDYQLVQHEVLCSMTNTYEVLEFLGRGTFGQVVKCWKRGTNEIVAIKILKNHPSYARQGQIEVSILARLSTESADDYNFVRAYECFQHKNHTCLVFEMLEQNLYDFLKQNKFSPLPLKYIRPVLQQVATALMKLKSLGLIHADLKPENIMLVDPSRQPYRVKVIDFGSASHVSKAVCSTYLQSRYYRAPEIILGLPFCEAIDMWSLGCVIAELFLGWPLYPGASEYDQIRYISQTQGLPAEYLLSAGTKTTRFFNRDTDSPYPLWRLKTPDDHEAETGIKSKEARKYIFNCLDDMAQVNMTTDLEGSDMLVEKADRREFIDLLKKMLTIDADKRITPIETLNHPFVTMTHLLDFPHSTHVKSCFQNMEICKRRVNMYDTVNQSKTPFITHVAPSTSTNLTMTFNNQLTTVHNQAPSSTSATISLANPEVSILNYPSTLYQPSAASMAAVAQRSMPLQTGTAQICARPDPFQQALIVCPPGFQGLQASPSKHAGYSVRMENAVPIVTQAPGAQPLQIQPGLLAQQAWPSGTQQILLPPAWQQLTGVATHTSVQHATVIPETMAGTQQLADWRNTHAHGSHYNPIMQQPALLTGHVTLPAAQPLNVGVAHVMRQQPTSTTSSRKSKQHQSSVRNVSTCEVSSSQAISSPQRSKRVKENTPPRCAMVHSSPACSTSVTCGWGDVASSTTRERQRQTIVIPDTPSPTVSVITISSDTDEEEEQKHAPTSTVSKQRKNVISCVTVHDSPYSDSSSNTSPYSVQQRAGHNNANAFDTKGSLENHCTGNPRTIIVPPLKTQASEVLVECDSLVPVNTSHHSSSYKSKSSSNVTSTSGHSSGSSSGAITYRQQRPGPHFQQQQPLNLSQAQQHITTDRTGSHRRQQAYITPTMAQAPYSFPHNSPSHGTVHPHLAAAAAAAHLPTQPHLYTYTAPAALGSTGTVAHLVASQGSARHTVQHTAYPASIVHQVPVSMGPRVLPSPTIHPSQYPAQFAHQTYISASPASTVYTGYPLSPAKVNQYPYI

[3] = biological target: Interleukin-1 receptor-associated kinase 1 (Homo sapiens) (UniProt P51617); test: Inhibition of IRAK1 (unknown origin) assessed as residual activity at 1000 nM by KINOMEscan analysis relative to control
Sequence of Interleukin-1 receptor-associated kinase 1 (Homo sapiens) (P51617 whole entry, looked up): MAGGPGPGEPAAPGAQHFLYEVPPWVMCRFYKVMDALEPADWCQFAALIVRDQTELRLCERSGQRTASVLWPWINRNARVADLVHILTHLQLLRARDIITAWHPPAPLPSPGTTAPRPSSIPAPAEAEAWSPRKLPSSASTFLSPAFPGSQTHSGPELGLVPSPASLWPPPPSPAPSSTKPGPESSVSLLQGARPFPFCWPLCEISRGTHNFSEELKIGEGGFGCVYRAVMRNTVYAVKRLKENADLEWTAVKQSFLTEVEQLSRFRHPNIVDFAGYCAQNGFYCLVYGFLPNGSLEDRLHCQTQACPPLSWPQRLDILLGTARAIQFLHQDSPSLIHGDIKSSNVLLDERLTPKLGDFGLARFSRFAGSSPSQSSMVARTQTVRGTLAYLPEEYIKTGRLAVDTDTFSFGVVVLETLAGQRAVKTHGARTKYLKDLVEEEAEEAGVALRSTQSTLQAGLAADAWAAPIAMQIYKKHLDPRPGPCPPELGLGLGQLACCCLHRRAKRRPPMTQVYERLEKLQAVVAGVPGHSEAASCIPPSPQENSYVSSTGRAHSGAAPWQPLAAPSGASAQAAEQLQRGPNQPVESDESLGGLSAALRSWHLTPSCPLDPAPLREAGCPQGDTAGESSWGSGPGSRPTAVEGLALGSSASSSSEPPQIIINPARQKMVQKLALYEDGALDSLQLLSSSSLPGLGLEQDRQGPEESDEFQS

[4] = organism: Homo sapiens; test: Inhibition of JNK1 (unknown origin) assessed as residual activity at 1000 nM by KINOMEscan analysis relative to control
[5] = tested on: Leucine-rich repeat serine/threonine-protein kinase 2 (Homo sapiens), Q5S007 [G2019S]; test: Inhibition of LRRK2 G2019S mutant (unknown origin) assessed as residual activity at 1000 nM by KINOMEscan analysis relative to control
Sequence of Leucine-rich repeat serine/threonine-protein kinase 2 (Homo sapiens), Q5S007 [G2019S] (Q5S007 whole entry G2019S): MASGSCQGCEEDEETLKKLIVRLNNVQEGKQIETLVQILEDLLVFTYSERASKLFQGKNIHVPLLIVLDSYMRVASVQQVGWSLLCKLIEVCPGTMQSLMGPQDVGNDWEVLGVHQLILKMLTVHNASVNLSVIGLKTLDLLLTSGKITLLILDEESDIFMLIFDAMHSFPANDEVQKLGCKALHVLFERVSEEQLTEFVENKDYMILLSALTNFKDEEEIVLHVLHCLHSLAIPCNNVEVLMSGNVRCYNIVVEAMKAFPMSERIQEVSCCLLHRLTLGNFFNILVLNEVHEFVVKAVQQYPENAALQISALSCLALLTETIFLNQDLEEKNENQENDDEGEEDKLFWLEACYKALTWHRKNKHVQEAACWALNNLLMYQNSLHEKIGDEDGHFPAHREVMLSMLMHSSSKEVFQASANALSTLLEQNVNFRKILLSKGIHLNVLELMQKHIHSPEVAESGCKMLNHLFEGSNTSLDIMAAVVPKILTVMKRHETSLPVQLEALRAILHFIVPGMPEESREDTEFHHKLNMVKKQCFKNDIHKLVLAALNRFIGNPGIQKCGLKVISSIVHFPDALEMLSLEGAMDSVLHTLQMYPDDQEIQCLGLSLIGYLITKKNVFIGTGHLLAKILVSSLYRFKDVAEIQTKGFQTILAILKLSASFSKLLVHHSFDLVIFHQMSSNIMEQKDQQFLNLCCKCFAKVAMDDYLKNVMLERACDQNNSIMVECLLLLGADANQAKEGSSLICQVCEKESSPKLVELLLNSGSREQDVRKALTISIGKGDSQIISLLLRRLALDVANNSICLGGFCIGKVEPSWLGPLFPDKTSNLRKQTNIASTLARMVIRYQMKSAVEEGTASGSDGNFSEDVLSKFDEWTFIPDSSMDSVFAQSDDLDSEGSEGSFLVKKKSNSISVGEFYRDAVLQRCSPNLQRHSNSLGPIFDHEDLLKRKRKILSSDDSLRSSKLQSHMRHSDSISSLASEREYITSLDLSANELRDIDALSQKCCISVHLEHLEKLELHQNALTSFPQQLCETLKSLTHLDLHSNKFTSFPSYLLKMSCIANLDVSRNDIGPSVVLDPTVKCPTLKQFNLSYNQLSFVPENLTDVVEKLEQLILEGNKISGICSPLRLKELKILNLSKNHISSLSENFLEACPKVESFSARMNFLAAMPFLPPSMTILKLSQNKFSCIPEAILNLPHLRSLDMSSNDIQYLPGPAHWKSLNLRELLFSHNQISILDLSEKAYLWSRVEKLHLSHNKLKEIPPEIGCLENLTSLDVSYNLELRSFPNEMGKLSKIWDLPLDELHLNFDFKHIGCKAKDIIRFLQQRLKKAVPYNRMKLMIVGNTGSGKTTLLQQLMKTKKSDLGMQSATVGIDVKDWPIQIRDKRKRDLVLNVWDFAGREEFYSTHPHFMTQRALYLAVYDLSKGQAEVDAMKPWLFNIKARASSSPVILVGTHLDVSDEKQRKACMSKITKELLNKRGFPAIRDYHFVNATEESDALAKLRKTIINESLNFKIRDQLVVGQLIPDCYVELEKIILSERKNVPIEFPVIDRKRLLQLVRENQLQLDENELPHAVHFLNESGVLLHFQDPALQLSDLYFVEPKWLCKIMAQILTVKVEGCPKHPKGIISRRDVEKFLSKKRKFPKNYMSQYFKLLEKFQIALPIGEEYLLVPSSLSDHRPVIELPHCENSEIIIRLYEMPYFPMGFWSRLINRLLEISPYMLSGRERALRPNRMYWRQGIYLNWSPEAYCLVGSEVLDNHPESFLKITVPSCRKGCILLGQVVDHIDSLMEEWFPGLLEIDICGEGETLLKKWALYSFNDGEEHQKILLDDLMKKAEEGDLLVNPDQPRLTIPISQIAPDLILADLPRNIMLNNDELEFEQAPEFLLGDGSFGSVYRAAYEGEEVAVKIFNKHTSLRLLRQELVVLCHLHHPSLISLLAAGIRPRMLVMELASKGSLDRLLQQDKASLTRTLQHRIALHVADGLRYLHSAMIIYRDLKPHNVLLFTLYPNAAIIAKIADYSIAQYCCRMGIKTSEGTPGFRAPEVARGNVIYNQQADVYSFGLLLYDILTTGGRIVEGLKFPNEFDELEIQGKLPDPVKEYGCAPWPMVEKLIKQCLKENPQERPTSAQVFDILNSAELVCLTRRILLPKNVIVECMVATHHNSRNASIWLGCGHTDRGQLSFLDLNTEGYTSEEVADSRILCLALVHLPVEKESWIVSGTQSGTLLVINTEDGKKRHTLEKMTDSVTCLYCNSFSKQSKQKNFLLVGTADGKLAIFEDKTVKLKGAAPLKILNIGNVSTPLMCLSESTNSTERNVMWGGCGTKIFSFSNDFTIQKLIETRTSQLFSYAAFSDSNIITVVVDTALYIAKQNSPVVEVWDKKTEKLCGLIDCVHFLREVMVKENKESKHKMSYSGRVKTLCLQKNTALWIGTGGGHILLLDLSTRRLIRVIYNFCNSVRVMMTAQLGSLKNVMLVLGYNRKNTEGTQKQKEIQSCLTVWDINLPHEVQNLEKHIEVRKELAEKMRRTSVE

[6] = biological target: T1, Mitogen-activated protein kinase kinase kinase kinase 3 (Homo sapiens) (UniProt Q8IVH8); test: Inhibition of MAP4K3 (unknown origin) assessed as residual activity at 1000 nM by KINOMEscan analysis relative to control
T1 sequence (whole entry): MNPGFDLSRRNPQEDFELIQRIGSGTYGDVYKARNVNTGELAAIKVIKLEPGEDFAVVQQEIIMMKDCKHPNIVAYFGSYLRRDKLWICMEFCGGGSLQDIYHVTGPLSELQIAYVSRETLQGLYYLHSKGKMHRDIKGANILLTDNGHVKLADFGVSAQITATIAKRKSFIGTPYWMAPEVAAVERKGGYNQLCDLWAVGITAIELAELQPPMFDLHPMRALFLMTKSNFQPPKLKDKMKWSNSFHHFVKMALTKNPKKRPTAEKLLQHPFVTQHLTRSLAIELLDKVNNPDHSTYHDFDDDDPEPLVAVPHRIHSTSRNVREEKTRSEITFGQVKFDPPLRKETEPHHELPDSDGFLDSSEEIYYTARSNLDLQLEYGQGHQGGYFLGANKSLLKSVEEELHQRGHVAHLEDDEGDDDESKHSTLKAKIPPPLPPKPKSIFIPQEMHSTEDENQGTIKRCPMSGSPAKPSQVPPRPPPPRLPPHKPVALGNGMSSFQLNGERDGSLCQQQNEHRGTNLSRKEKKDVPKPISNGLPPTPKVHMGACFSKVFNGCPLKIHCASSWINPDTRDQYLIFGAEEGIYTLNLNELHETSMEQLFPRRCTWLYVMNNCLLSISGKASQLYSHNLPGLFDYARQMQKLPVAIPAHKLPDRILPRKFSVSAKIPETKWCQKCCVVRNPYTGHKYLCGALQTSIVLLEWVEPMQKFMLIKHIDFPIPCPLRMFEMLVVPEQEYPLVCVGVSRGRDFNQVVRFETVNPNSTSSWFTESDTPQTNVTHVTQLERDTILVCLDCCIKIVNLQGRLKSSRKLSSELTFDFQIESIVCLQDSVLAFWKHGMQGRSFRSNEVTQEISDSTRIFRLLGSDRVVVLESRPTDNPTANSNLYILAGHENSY

[7] = biological target: T2, Phosphatidylinositol 4,5-bisphosphate 3-kinase catalytic subunit delta isoform (Homo sapiens) (UniProt O00329); test: Inhibition of PIK3CD (unknown origin) assessed as residual activity at 1000 nM by KINOMEscan analysis relative to control
T2 sequence (whole entry): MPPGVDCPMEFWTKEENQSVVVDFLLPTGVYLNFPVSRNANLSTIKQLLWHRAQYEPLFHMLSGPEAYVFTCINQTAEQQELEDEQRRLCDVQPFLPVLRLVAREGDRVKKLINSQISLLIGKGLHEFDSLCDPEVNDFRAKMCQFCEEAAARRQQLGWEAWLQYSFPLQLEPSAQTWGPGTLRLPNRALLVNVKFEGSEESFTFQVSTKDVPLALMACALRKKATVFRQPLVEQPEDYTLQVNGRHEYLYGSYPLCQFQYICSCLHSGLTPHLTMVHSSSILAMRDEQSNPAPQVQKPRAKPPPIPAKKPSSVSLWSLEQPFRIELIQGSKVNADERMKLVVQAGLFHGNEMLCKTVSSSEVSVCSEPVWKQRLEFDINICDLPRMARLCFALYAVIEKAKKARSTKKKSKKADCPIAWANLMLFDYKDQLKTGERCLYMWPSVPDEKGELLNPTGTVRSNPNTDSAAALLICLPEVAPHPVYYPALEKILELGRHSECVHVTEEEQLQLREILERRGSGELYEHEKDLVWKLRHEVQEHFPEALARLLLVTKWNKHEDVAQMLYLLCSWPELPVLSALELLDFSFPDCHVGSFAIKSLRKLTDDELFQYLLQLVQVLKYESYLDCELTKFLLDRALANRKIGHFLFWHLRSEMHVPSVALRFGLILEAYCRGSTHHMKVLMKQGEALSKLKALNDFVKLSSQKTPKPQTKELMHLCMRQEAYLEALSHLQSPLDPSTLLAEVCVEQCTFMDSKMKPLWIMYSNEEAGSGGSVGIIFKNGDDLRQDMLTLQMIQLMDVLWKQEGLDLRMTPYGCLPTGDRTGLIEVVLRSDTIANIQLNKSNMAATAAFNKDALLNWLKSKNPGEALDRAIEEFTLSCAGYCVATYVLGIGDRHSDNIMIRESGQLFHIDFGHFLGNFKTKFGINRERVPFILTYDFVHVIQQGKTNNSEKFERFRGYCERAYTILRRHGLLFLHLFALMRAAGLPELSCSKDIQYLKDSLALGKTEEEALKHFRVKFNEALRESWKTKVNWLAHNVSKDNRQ

[8] = biological target: Phosphatidylinositol 4-kinase beta (Homo sapiens) (UniProt Q9UBF8); test: Inhibition of PIK4CB (unknown origin) assessed as residual activity at 1000 nM by KINOMEscan analysis relative to control
[9] = biological target: T3, Serine/threonine-protein kinase Sgk2 (Homo sapiens) (UniProt Q9HBY8); test: Inhibition of SGK2 (unknown origin) assessed as residual activity at 1000 nM by KINOMEscan analysis relative to control
T3 sequence (whole entry): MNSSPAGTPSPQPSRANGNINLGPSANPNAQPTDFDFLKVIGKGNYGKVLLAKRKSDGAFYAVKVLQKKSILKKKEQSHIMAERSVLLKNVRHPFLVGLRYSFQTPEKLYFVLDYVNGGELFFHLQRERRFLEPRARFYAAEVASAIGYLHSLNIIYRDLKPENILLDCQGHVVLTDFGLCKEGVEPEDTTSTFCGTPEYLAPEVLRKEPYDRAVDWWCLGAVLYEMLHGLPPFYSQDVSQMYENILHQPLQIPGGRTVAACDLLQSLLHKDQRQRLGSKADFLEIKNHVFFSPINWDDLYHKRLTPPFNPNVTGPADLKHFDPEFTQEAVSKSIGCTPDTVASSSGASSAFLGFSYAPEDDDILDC

Sequence of Dual specificity tyrosine-phosphorylation-regulated kinase 1B (Homo sapiens) (Q9Y463 whole entry, looked up): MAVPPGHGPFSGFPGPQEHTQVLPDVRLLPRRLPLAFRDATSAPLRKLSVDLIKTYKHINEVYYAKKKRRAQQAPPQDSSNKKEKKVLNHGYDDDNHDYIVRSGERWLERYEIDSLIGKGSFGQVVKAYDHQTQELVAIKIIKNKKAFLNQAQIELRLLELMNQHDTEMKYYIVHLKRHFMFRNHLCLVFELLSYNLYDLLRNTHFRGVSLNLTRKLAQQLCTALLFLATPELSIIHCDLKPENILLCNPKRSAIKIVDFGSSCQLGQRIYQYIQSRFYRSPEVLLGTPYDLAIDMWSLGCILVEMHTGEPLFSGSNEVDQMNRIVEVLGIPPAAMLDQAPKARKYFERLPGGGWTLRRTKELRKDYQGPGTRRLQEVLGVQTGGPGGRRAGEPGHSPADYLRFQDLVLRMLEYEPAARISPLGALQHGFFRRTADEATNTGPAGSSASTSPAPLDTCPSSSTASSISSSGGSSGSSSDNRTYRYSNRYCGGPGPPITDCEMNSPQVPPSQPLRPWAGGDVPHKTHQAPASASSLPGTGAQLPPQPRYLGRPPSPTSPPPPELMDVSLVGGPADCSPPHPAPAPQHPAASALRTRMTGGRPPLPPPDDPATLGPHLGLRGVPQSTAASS

| Structure (SMILES) | Activity [1] | Activity [2] | Activity [3] | Activity [4] | Activity [5] | Activity [6] | Activity [7] | Activity [8] | Activity [9] |
| --- | --- | --- | --- | --- | --- | --- | --- | --- | --- |
| COc1cc2ncnc(N[C@H](C)c3cccc4ccccc34)c2cc1OC | 50% | 98% | 85% | 100% | 95% | 100% | 68% | 82% | 51% |
| COc1cc2nc(C)nc(N[C@H](C)c3cccc(-c4cn[nH]c4)c3)c2cc1OC | 100% | 100% | 68% | 64% | 91% | 90% | 96% | 69% | 94% |
